Entries after “also recorded” stand apart in the source; their conditions may differ.
B1: BMP-10: cardiopoietic growth factor (protein, UniProt O95393 317-424, looked up)
Bone morphogenetic protein 10: NAKGNYCKRTPLYIDFKEIGWDSWIIAPPGYEAYECRGVCNYPLAEHLTPTKHAIIQALVHLKNSQKASKACCVPTKLEPISILYLDKGVVTYKFKYEGMAVSECGCR
B2: BMP-4: cardiopoietic growth factor (protein, UniProt P12644 293-408, looked up)
Bone morphogenetic protein 4: SPKHHSQRARKKNKNCRRHSLYVDFSDVGWNDWIVAPPGYQAFYCHGDCPFPLADHLNSTNHAIVQTLVNSVNSSIPKACCVPTELSAISMLYLDEYDKVVLKNYQEMVVEGCGCR
B3: Wnt5a: non-canonical Wnt, cardiopoietic growth factor (protein, UniProt P41221 62-380, looked up)
Protein Wnt-5a: IIGAQPLCSQLAGLSQGQKKLCHLYQDHMQYIGEGAKTGIKECQYQFRHRRWNCSTVDNTSVFGRVMQIGSRETAFTYAVSAAGVVNAMSRACREGELSTCGCSRAARPKDLPRDWLWGGCGDNIDYGYRFAKEFVDARERERIHAKGSYESARILMNLHNNEAGRRTVYNLADVACKCHGVSGSCSLKTCWLQLADFRKVGDALKEKYDSAAAMRLNSRGKLVQVNSRFNSPTTQDLVYIDPSPDYCVRNESTGSLGTQGRLCNKTSEGMDGCELMCCGRGYDQFKTVQTERCHCKFHWCCYVKCKKCTEIVDQFVCK
B4: Wnt3a: soluble Wnt-3a, canonical Wnt growth factor (protein, UniProt P56704 19-352, looked up)
Protein Wnt-3a: SYPIWWSLAVGPQYSSLGSQPILCASIPGLVPKQLRFCRNYVEIMPSVAEGIKIGIQECQHQFRGRRWNCTTVHDSLAIFGPVLDKATRESAFVHAIASAGVAFAVTRSCAEGTAAICGCSSRHQGSPGKGWKWGGCSEDIEFGGMVSREFADARENRPDARSAMNRHNNEAGRQAIASHMHLKCKCHGLSGSCEVKTCWWSQPDFRAIGDFLKDKYDSASEMVVEKHRESRGWVETLRPRYTYFKVPTERDLVYYEASPNFCEPNPETGSFGTRDRTCNVSSHGIDGCDLLCCGRGHNARAERRREKCRCVFHWCCYVSCQECTRVYDVHTCK
B5: Dkk-1: Dickkopf-1, an inhibitor of canonical Wnts (protein, UniProt O94907 32-266, looked up)
Dickkopf-related protein 1: TLNSVLNSNAIKNLPPPLGGAAGHPGSAVSAAPGILYPGGNKYQTIDNYQPYPCAEDEECGTDEYCASPTRGGDAGVQICLACRKRRKRCMRHAMCCPGNYCKNGICVSSDQNHFRGEIEETITESFGNDHSTLDGYSRRTTLSSKMYHTKGQEGSVCLRSSDCASGLCCARHFWSKICKPVLKEGQVCTKHRRKGSHGLEIFQRCYCGEGLSCRIQKDHHQASNSSRLHTCQRH

Key:
rats after ISO damage = conditions: rat, in vivo
c-kit^pos eCSCs = assay: cardiomyocyte differentiation of c-kit^pos eCSCs in differentiation medium (cTnI^pos cells, qRT-PCR); type: cell-based, rat; conditions: for number of myocyte differentiating (cTnI^pos) cells / transcription of myogenic lineage markers: differentiation medium (LIF withdrawal); for transcription of myogenic lineage markers: qRT-PCR; for differentiation of eCSCs into the cardiomyocyte lineage (myocyte specification): differentiation medium
Procedure: FIGS. 4(A-E). […] Nuclei were identified by DAPI in blue. Bar=50 μm. […] Data are Mean±SD of n=6/condition. […]
RNA was extracted using Qiagen RNeasy columns and was reverse transcribed using first strand cDNA synthesis with random or oligo-dT primers (Applied Biosystems). Residual amounts of DNA were removed by on-column DNase treatment using the RNase-Free DNase Set (Qiagen) during the RNeasy procedure. Quantitative RT-PCR was performed using SYBR Green (BioRad) on a MyIQ thermocycler (BioRad). The PCR-reaction included 2 μl of template cDNA, and 300 nM forward and reverse primers. PCR efficiency was evaluated by using a standard curve of five serial dilution points. Data were analysed using BioRad IQ software and mRNA was normalized to the housekeeping gene, GAPDH. All reactions were carried out in triplicate.

c-kit^pos CD45^neg eCSCs [1] = assay: BrdU incorporation proliferation assay of c-kit^pos eCSCs with cardiopoietic growth factors and Wnt or TGF-β modulators; type: cell-based, rat; conditions: in vitro
Procedure: (§1) c-kit^posCD45^neg eCSCs express functional receptors for these cardiopoetic factors (cGFs) (FIG. 4). In particular, both TGF-β1 and Wnt receptors are activated and signal to their known downstream effectors in eCSCs isolated from ISO injured hearts (FIG. 4). We thus directly tested in vitro the growth response of freshly isolated c-kit^pos CD45^neg eCSCs grown in limited serum (1% ESQ-FBS) to individual cGFs. Dose-response curves were performed to determine the optimal concentration for each cGF (FIG. 13A-H). […] These effects were confirmed by qRT-PCR of cardiomyocyte-specific mRNAs (FIG. 5).
(§2) Wnt/β-catenin and TGF-β/SMADs signaling play critical roles in the regulation of embryonic as well as different tissue-specific stem cell fate (21-23). In particular, these two signaling pathways have distinct functions in mammalian cardiogenesis (24-27). Thus, to extend our findings we have tested through gain and loss of function experiments the effects of Wnt/β-catenin and TGF-β/SMADs signaling pathways on c-kit^pos eCSC fate in vitro. […] To disrupt Wnt/ρ-catenin, c-kit^pos eCSCs were either treated with Dickkopf-1 (Dkk-1), an inhibitor of canonical Wnts or transfected with a specific short hairpin RNA for β-catenin (β-cat^shRNA). […] The positive and negative modulators of Wnt/β-catenin physiologically acted on their known molecular targets by respectively stabilizing or degrading β-catenin and its LEF/TCF-dependent transcriptional activity (FIG. 6). […] On the other hand, Dkk-1 increased c-kit^pos CSC myocyte specification (FIG. 5), even though its effect was not sufficient to produce a fully differentiated phenotype as indicated by the lack of cells which expressed abundant and organised sarcomeric structures (FIG. 5).

[2] = tested on: CSCs^GFP/TK and adult rat ventricular myocytes (ARVM); assay: GCV in vitro on CSCs^GFP/TK growth and on co-cultured adult rat ventricular myocytes; type: cell-based
Procedure: c-kit^pos CSCs were grown in CSC growth medium consisting of Dulbecco's MEM/Ham's F12 (DMEM/F12; […] Millipore), bFGF (10 ng/ml; Peprotech), EGF (20 ng/ml; Peprotech), insulin-transferrin-selenite (ITS; […] Ganciclovir (GCV, 10^−5M) was added and cells were cultured for 3 and 7 days. Mouse c-kit^pos CSCs or c-kit^pos CSC-derived cardiospheres were cultured on glass chamber slides (BD Falcon), fixed with 4% PFA for 20 min, and then stained. […] For cardiomyocyte/CSC^GFP/TK co-culture assays, 3× wells/condition were fixed and stained to assess the number of apoptotic (TdT and caspase-3) cardiomyocytes (Kawaguchi et al., 2010). Cardiomyocytes were identified by co-staining for cTnI. The percentage of TdT-positive and caspase-3 positive cardiomyocytes was determined by counting 20 random fields at ×40 magnification for each well. Numbers were expressed as a percentage of TdT- or caspase-3 positive cardiomyocytes relative to the total number of cardiomyocytes counted. FITC or Texas Red-conjugated 2° Abs were used. Nuclei were stained with DAPI. Fluorescence was visualized and images acquired with confocal microscopy (Zeiss LSM 510 or 710).

[3] = tested on: rats with ISO+5-FU cardiomyopathy
hCSCs = assay: stimulation of hCSCs with inflammatory cytokines, immunogenicity molecules; type: cell-based, human
Source text: The human c-kit CSCs (hCSCs) from all the donors tested so far (n=8) expressed normal levels of the HLA class I and no detectable levels of HLA class II and the co-stimulatory molecules CD40, CD80 and CD 86 (see primary data example below)> they also fail to express CD 275 but express high levels of PD-L1 (CD274).

[4] = tested on: Nestin^pos progenitor cells from clonal-derived c-kit^pos eCSCs; assay: neurogenic differentiation of Nestin^pos cells from clonal c-kit^pos eCSCs; type: cell-based, rat; conditions: differentiation medium, 7 days
Source text: It has been previously shown that cardiac side population cells that express the neural progenitor marker, Nestin, can be induced to differentiate into the ectoderm layer, producing neurons and glial cells (15). We then purified for a population of Nestin^pos progenitor cells from clonal-derived c-kit^pos eCSCs. When placed into differentiation medium supplemented with Retinoic Acid or LIF for 7 days, we found up-regulation of GFAP, MATH2/NeuroD6, a neuron specific transcription factor (FIG. 3C), β-3 tubulin arrayed in filaments and bundles (FIG. 3C), neuron-specific enolase (FIG. 3C), acetylcholintransferase (FIG. 3C), doublecortin (DCX), and S-100β (FIG. 3C). Furthermore, after RA differentiation, cells had characteristics of neuronal dendrites, indicating a morphological change that resembled neurons (FIG. 3C).

c-kit^pos CD45^neg eCSCs [5] = assay: clonogenic assay of c-kit^pos eCSCs; type: cell-based, rat; conditions: in vitro
Procedure: as §1, §2

| Molecule | number of myocyte differentiating (cTnI^pos) cells (c-kit^pos eCSCs) | transcription of myogenic lineage markers (c-kit^pos eCSCs) | c-kit^pos eCSC proliferation (growth, expansion) (c-kit^pos CD45^neg eCSCs [1]) | c-kit^pos eCSC clonogenicity (c-kit^pos CD45^neg eCSCs [5]) | also measured |
| --- | --- | --- | --- | --- | --- |
| O=c1[nH]cc(F)c(=O)[nH]1 [5-FU, 5-fluorouracil] | – | – | – | – | toxic effects of the 5-FU regime (rats after ISO damage): did not cause any cellular or functional cardiac or extra-cardiac toxic effects |
| O=C1Nc2cc(Br)ccc2/C1=C1/Nc2ccccc2/C1=N\O [BIO, 6-bromoindirubin-3′-oxime] | significantly reduced | significantly reduced | stimulate | – | – |
| Nc1nc(O)c2ncn(COC(CO)CO)c2n1 [GCV, Ganciclovir] | – | – | – | – | adult rat ventricular myocyte (ARVM) apoptosis ([2]; GCV 10^−5 M, alone or co-cultured with CSC^GFP/TK): does not cause any relevant effect; growth of Lenti-GFP/TK-transfected CSCs (CSCs^GFP/TK) ([2]; GCV 10^−5 M, in vitro): growth arrest; survival of adult rat ventricular CMs cultured with CSCs^GFP/TK ([2]; GCV at a concentration sufficient to kill the CSCs^GFP/TK): does not affect survival; effect of GCV treatment on recovered cellular and functional parameters ([3]; ISO+5-FU+CSCs^GFP/TK group): dramatic reversal of all the recovered cellular and functional parameters; adverse effects of GCV treatment ([3]; rat, in vivo): did not cause any histological or functional adverse effects |
| FGF-2: cardiopoietic growth factor | – | – | significantly increased | – | – |
| HGF: cardiopoietic growth factor | – | – | significantly increased | – | – |
| IFNγ: inflammatory cytokine | – | – | – | – | expression of HLA class I and class II on hCSCs (hCSCs): significantly enhanced; expression of the co-stimulatory molecules CD40, CD80 and CD 86 on hCSCs (hCSCs): does not induce |
| IGF-1: cardiopoietic growth factor | – | – | significantly increased | – | – |
| LIF: supplement of the neural differentiation medium | – | – | – | – | expression of neural markers (GFAP, MATH2/NeuroD6, β-3 tubulin and others) [4]: up-regulation |
| TGF-β1: cardiopoietic growth factor | significantly induced | significantly induced | did not affect; also recorded: Neither BMP-2, BMP-4, TGF-β1 supplementation nor Smad2 knock-down affected | did not affect; also recorded: Neither BMP-2, BMP-4, TGF-β1 supplementation nor Smad2 knock-down affected | differentiation of eCSCs into the cardiomyocyte lineage (myocyte specification) (c-kit^pos eCSCs): promoted differentiation |
| B1 | significantly induced | significantly induced | – | – | – |
| B2 | significantly induced | significantly induced | did not affect; also recorded: Neither BMP-2, BMP-4, TGF-β1 supplementation nor Smad2 knock-down affected | did not affect; also recorded: Neither BMP-2, BMP-4, TGF-β1 supplementation nor Smad2 knock-down affected | differentiation of eCSCs into the cardiomyocyte lineage (myocyte specification) (c-kit^pos eCSCs): promoted differentiation |
| B3 | – | – | did not affect | did not affect | differentiation of eCSCs into the cardiomyocyte lineage (myocyte specification) (c-kit^pos eCSCs): promoted differentiation |
| B4 | significantly reduced | significantly reduced | significantly increased | most effective | c-kit^pos eCSC clonogenicity (c-kit^pos CD45^neg eCSCs [5]; listed as Wnt-3a): stimulate; c-kit^pos eCSC proliferation (growth, expansion) (c-kit^pos CD45^neg eCSCs [1]; listed as Wnt-3a): stimulate |
| B5 | – | – | significant decrease | significant decrease | differentiation of eCSCs into the cardiomyocyte lineage (myocyte specification) (c-kit^pos eCSCs): increased |

From patent US10526581B2, “Modulation of cardiac stem-progenitor cell differentiation, assays and uses thereof” (priority 2013, dated 2020)
